Reference: the kinase profiling compilation of Christmann-Franck et al. (2016)
Values joined by “and” are separate entries in the source; they are usually repeats but may differ in a detail not shown here. Identical values can stand only once.

Experiments:
Experiment in all cases: KINOMEscan competition binding
Settings in all cases: compound 10.0 µM
[1] = target: AKT2 (human) (UniProt P31751)
[2] = target: AURKB (human) (UniProt Q96GD4)
[3] = target: BMPR2 (human) (UniProt Q13873)
[4] = target: CAMK2G (human) (UniProt Q13555)
[5] = target: CDK19 (human) (UniProt Q9BWU1)
[6] = target: CSK (human) (UniProt P41240)
[7] = target: CSNK2A2 (human) (UniProt P19784)
[8] = target: DCLK1 (human) (UniProt O15075)
[9] = target: FLT3 (human) (UniProt P36888)
[10] = target: FRK (human) (UniProt P42685)
[11] = target: GSK3B (human) (UniProt P49841)
[12] = target: IKBKB (human) (UniProt O14920)
[13] = target: INSRR (human) (UniProt P14616)
[14] = target: KDR (human) (UniProt P35968)
[15] = target: LTK (human) (UniProt P29376)
[16] = target: MAP2K3 (human) (UniProt P46734)
[17] = target: MAPK1 (human) (UniProt P28482)
[18] = target: MAPK4 (human) (UniProt P31152)
[19] = target: MAPKAPK2 (human) (UniProt P49137)
[20] = target: MAPKAPK5 (human) (UniProt Q8IW41)
[21] = target: MARK3 (human) (UniProt P27448)
[22] = target: MKNK2 (human) (UniProt Q9HBH9)
[23] = target: MUSK (human) (UniProt O15146)
[24] = target: MYLK2 (human) (UniProt Q9H1R3)
[25] = target: NEK2 (human) (UniProt P51955)
[26] = target: NTRK1 (human) (UniProt P04629)
[27] = target: PAK3 (human) (UniProt O75914)
[28] = target: PAK6 (human) (UniProt Q9NQU5)
[29] = target: PIK3CB (human) (UniProt P42338)
[30] = target: PIM1 (human) (UniProt P11309)
[31] = target: PIM2 (human) (UniProt Q9P1W9)
[32] = target: PRKCD (human) (UniProt Q05655)
[33] = target: PRKD1 (human) (UniProt Q15139)
[34] = target: RIPK2 (human) (UniProt O43353)
[35] = target: ROCK2 (human) (UniProt O75116)
[36] = target: ROS1 (human) (UniProt P08922)
[37] = target: SIK1 (human) (UniProt P57059)
[38] = target: SRPK2 (human) (UniProt P78362)
[39] = target: TAOK3 (human) (UniProt Q9H2K8)
[40] = target: TTK (human) (UniProt P33981)
[41] = target: ULK2 (human) (UniProt Q8IYT8)

GSK3B (human), sequence (P49841 whole entry, looked up): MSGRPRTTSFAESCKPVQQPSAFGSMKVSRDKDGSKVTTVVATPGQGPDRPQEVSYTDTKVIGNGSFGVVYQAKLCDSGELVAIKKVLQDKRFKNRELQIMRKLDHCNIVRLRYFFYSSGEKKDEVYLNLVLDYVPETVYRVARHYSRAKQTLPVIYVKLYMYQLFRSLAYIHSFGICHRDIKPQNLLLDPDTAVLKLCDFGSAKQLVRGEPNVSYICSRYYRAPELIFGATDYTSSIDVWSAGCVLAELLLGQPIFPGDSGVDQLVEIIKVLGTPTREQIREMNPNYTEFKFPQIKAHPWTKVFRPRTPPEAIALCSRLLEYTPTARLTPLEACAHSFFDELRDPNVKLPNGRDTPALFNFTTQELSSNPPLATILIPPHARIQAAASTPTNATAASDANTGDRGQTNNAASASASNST
INSRR (human), sequence (P14616 whole entry, looked up): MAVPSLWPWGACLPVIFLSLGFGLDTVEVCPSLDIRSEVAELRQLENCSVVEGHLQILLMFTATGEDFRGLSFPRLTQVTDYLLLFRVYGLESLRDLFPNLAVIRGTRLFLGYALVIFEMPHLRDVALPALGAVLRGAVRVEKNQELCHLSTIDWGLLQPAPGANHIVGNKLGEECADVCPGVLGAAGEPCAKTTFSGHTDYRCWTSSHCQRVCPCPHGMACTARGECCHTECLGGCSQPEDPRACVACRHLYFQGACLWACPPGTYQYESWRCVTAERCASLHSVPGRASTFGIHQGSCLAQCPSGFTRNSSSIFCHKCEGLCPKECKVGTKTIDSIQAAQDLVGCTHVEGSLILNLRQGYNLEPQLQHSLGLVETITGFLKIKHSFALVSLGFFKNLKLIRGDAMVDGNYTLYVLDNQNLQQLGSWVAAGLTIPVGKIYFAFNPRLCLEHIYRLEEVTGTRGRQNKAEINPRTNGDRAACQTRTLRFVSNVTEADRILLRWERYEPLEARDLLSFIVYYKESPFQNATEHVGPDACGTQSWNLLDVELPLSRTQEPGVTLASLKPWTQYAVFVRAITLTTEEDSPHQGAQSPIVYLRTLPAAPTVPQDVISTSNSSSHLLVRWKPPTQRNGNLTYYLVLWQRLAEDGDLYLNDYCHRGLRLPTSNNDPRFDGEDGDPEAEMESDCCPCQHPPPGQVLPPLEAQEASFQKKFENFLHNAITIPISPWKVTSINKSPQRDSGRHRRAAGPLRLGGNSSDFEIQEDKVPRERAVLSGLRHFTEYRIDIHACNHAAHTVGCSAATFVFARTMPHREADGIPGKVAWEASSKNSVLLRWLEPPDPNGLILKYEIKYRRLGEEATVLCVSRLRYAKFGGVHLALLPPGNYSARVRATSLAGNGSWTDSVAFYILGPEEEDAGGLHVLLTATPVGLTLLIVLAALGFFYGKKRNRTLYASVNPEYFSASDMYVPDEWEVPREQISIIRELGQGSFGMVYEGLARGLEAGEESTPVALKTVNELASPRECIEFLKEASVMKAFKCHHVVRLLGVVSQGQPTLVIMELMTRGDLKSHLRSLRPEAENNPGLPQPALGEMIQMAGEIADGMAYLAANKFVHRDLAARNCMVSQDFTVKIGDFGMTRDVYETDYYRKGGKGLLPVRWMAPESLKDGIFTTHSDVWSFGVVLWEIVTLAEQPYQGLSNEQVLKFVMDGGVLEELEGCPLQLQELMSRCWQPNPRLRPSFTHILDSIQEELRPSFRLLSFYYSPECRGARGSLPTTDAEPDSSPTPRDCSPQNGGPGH
FRK (human), sequence (P42685 whole entry, looked up): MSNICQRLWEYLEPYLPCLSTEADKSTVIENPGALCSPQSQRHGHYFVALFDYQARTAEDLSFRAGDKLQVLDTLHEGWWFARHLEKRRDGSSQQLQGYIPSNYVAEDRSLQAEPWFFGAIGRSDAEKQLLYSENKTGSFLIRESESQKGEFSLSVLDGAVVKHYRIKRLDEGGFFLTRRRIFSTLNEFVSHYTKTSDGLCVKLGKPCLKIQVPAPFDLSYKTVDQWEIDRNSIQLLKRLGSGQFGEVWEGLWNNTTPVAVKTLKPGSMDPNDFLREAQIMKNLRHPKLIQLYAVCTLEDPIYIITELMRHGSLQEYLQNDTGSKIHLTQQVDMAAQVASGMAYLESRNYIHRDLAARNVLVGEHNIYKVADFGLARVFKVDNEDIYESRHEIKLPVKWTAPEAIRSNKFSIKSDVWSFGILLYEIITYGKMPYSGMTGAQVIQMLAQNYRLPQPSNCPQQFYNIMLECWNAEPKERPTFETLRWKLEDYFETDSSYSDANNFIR
MAPKAPK2 (human), sequence (P49137 whole entry, looked up): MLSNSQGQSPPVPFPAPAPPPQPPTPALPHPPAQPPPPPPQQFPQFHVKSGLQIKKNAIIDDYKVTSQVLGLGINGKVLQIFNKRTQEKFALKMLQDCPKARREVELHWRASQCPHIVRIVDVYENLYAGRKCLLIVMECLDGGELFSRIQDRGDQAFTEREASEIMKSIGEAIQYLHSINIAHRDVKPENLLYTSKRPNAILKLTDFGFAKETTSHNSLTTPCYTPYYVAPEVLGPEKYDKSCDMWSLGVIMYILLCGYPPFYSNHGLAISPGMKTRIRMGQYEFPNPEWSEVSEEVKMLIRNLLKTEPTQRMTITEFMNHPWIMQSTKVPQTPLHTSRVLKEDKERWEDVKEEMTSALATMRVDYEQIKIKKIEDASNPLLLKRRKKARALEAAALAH
SIK1 (human), sequence (P57059 whole entry, looked up): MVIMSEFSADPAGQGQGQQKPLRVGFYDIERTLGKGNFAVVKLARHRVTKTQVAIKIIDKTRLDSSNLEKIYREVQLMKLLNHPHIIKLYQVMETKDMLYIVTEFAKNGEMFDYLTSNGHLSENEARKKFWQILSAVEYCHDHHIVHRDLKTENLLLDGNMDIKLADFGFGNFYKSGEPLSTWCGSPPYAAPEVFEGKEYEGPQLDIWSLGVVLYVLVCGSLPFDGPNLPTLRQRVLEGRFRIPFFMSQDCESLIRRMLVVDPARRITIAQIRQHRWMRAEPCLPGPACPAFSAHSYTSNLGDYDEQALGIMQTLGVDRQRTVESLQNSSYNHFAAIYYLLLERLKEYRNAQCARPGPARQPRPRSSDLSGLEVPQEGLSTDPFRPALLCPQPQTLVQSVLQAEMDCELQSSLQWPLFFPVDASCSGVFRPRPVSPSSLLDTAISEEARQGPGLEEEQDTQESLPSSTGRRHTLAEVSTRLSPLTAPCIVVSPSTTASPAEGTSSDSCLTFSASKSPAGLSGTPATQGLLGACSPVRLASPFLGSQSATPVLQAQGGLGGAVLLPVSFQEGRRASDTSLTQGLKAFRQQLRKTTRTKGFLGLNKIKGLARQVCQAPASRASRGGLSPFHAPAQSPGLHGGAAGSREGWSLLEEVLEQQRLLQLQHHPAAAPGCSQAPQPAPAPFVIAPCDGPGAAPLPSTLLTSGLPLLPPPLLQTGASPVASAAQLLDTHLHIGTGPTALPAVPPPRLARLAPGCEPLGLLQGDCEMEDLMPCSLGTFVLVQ
MAP2K3 (human), sequence (P46734 whole entry, looked up): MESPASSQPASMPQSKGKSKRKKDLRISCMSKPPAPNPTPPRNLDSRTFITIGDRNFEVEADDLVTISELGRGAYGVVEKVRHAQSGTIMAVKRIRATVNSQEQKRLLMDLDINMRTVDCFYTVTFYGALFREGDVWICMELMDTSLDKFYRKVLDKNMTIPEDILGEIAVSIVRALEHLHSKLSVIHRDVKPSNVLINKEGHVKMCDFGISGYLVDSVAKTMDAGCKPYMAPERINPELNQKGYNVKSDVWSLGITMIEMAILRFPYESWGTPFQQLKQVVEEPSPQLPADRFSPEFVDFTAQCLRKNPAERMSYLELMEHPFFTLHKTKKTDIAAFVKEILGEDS
PIM1 (human), sequence (P11309 whole entry, looked up): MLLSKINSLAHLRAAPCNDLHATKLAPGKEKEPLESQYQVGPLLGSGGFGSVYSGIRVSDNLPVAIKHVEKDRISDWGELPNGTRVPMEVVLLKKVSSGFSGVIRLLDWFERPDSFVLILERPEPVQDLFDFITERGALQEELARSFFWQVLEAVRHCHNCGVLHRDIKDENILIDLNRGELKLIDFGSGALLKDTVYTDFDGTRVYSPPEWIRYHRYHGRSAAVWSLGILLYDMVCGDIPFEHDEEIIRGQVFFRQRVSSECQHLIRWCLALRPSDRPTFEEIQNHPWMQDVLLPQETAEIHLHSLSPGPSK
CSNK2A2 (human), sequence (P19784 whole entry, looked up): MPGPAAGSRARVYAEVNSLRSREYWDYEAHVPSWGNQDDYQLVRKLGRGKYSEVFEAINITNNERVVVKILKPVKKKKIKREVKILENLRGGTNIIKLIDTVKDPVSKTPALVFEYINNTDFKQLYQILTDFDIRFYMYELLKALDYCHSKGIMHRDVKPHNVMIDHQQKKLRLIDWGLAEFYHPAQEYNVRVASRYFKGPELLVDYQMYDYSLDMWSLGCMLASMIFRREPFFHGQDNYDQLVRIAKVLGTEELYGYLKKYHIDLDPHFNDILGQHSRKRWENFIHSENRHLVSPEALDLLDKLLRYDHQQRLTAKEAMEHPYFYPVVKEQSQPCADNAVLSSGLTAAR
CDK19 (human), sequence (Q9BWU1 whole entry, looked up): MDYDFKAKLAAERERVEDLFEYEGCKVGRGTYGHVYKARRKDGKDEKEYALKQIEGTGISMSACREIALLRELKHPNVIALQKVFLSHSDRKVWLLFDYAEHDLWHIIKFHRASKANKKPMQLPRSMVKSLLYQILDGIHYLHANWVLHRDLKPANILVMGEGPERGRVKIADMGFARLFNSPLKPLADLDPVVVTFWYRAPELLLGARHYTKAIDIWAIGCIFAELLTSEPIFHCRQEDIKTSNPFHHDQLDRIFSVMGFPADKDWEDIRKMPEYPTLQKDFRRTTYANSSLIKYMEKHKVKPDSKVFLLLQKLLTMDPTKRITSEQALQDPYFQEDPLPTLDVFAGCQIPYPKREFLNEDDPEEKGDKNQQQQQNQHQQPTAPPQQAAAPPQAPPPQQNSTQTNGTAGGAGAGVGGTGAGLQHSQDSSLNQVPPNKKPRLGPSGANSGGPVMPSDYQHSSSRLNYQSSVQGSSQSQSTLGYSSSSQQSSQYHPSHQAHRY

For O=C(NOC[C@H](O)CO)c1ccc(F)c(F)c1Nc1ccc(I)cc1F, the kinase still bound, per cent of control [1] was 100%, the kinase still bound, per cent of control [2] was 99% and the kinase still bound, per cent of control [3] was 92%. The kinase still bound, per cent of control [4] was 100%, the kinase still bound, per cent of control [5] was 100% and the kinase still bound, per cent of control [6] was 100%. For the same molecule, the kinase still bound, per cent of control [7] was 100%, the kinase still bound, per cent of control [8] was 100% and the kinase still bound, per cent of control [9] was 82% and 80%. It also gave a kinase still bound, per cent of control [10] of 60%, a kinase still bound, per cent of control [11] of 68% and a kinase still bound, per cent of control [12] of 79%. The kinase still bound, per cent of control [13] was 81%, the kinase still bound, per cent of control [14] was 84% and the kinase still bound, per cent of control [15] was 100%. For the same molecule, the kinase still bound, per cent of control [16] was 89%, the kinase still bound, per cent of control [17] was 100% and the kinase still bound, per cent of control [18] was 77%. It also gave a kinase still bound, per cent of control [19] of 84%, a kinase still bound, per cent of control [20] of 100% and a kinase still bound, per cent of control [21] of 91%. It also gave a kinase still bound, per cent of control [22] of 100%, a kinase still bound, per cent of control [23] of 68% and a kinase still bound, per cent of control [24] of 100%. It also gave a kinase still bound, per cent of control [25] of 70%, a kinase still bound, per cent of control [26] of 100% and a kinase still bound, per cent of control [27] of 100%. For the same molecule, the kinase still bound, per cent of control [28] was 94%, the kinase still bound, per cent of control [29] was 100% and the kinase still bound, per cent of control [30] was 100%. The kinase still bound, per cent of control [31] was 75%, the kinase still bound, per cent of control [32] was 100% and the kinase still bound, per cent of control [33] was 100%. The kinase still bound, per cent of control [34] was 66%, the kinase still bound, per cent of control [35] was 100% and the kinase still bound, per cent of control [36] was 92%. For the same molecule, the kinase still bound, per cent of control [37] was 100%, the kinase still bound, per cent of control [38] was 100% and the kinase still bound, per cent of control [39] was 89%. For the same molecule, the kinase still bound, per cent of control [40] was 100% and the kinase still bound, per cent of control [41] was 97%.
Work on C=CC(=O)Nc1cccc(Oc2nc(Nc3ccc(N4CCN(C)CC4)cc3OC)ncc2Cl)c1 yielded a kinase still bound, per cent of control [1] of 100%, a kinase still bound, per cent of control [2] of 20% and a kinase still bound, per cent of control [3] of 8.6%. For the same molecule, the kinase still bound, per cent of control [4] was 100%, the kinase still bound, per cent of control [5] was 100% and the kinase still bound, per cent of control [6] was 100%. It also gave a kinase still bound, per cent of control [7] of 100%, a kinase still bound, per cent of control [8] of 1% and a kinase still bound, per cent of control [9] of 4.6%. It also gave a kinase still bound, per cent of control [10] of 28%, a kinase still bound, per cent of control [11] of 100% and a kinase still bound, per cent of control [12] of 100%. The kinase still bound, per cent of control [13] was 13%, the kinase still bound, per cent of control [14] was 100% and the kinase still bound, per cent of control [15] was 3.6%. For the same molecule, the kinase still bound, per cent of control [16] was 100%, the kinase still bound, per cent of control [17] was 100% and the kinase still bound, per cent of control [18] was 100%. The kinase still bound, per cent of control [19] was 100%, the kinase still bound, per cent of control [20] was 100% and the kinase still bound, per cent of control [21] was 7.8%. The kinase still bound, per cent of control [22] was 2%, the kinase still bound, per cent of control [23] was 100% and the kinase still bound, per cent of control [24] was 100%. It also gave a kinase still bound, per cent of control [25] of 100%, a kinase still bound, per cent of control [26] of 100% and a kinase still bound, per cent of control [27] of 100%. For the same molecule, the kinase still bound, per cent of control [28] was 100%, the kinase still bound, per cent of control [29] was 100% and the kinase still bound, per cent of control [30] was 100%. It also gave a kinase still bound, per cent of control [31] of 100%, a kinase still bound, per cent of control [32] of 100% and a kinase still bound, per cent of control [33] of 12%. The kinase still bound, per cent of control [34] was 100%, the kinase still bound, per cent of control [35] was 27% and the kinase still bound, per cent of control [36] was 5%. It also gave a kinase still bound, per cent of control [37] of 100%, a kinase still bound, per cent of control [38] of 100% and a kinase still bound, per cent of control [39] of 100%. It also gave a kinase still bound, per cent of control [40] of 2% and a kinase still bound, per cent of control [41] of 2%.
Cc1ccc(C(=O)Nc2cccc(C(F)(F)F)c2)cc1Nc1cncc(C(N)=O)c1 gave a kinase still bound, per cent of control [1] of 100%, a kinase still bound, per cent of control [2] of 100% and a kinase still bound, per cent of control [3] of 100%. It also gave a kinase still bound, per cent of control [4] of 100%, a kinase still bound, per cent of control [5] of 25% and a kinase still bound, per cent of control [6] of 100%. For the same molecule, the kinase still bound, per cent of control [7] was 100%, the kinase still bound, per cent of control [8] was 100% and the kinase still bound, per cent of control [9] was 100%. For the same molecule, the kinase still bound, per cent of control [10] was 1.3%, the kinase still bound, per cent of control [11] was 100% and the kinase still bound, per cent of control [12] was 100%. The kinase still bound, per cent of control [13] was 100%, the kinase still bound, per cent of control [14] was 100% and the kinase still bound, per cent of control [15] was 100%. For the same molecule, the kinase still bound, per cent of control [16] was 100%, the kinase still bound, per cent of control [17] was 100% and the kinase still bound, per cent of control [18] was 100%. The kinase still bound, per cent of control [19] was 100%, the kinase still bound, per cent of control [20] was 100% and the kinase still bound, per cent of control [21] was 100%. For the same molecule, the kinase still bound, per cent of control [22] was 100%, the kinase still bound, per cent of control [23] was 100% and the kinase still bound, per cent of control [24] was 100%. The kinase still bound, per cent of control [25] was 100%, the kinase still bound, per cent of control [26] was 100% and the kinase still bound, per cent of control [27] was 100%. It also gave a kinase still bound, per cent of control [28] of 100%, a kinase still bound, per cent of control [29] of 100% and a kinase still bound, per cent of control [30] of 100%. The kinase still bound, per cent of control [31] was 100%, the kinase still bound, per cent of control [32] was 100% and the kinase still bound, per cent of control [33] was 100%. The kinase still bound, per cent of control [34] was 100%, the kinase still bound, per cent of control [35] was 100% and the kinase still bound, per cent of control [36] was 100%. For the same molecule, the kinase still bound, per cent of control [37] was 100%, the kinase still bound, per cent of control [38] was 100% and the kinase still bound, per cent of control [39] was 100%. For the same molecule, the kinase still bound, per cent of control [40] was 100% and the kinase still bound, per cent of control [41] was 100%.
